# Measured values reported in patent US4528189A, “Urotensin peptides” (The Salk Institute For Biological Studies, priority 1983, dated 1985).
# Where two headings read alike, the source gives them in different places.
# Experiments:
# [1] = tested on: ACTH and β-END-LI secretion; assay: secretion of ACTH and β-END-LI, general procedure (Examples V, VI); details: general procedure of Example III as printed
# Procedure: (§1) The urotensin peptides from Examples II and III are examined for effects on the secretion of ACTH and β-endorphin in vitro and also examined in vivo. […] UI activity of the peptides was measured by the isolated rat hind limb assay, Lederis, K. et al. "Effects and Assay of Urotensin I on the Perfused Hind Limb of the Rat", Gen. Comp. Endocrinol., 24:10-16, 1974. In vivo hypotensive activity of extracted peptides was measured in anaesthetized rats, Lederis, K. and Medakovic, M. "Pharmacological Observations on the Hypotensive Action of Extracts of Teleost Fish Urophyses (Urotensin I) in the Rat", Br. J. Pharmacol. 51:315-324, 1974, and in anaesthetized dogs, MacCannell and Lederis, "Dilatation of the Mesenteric Vascular Bed of the Dog Produced by a Peptide, Urotensin I", J. Pharm. Exp. Ther. 203:38-46, 1977.
# (§2) The peptide having the formula: Ac-[…]NH2 is synthesized.
# blood pressure [2] = assay: mammalian vasodilatory-hypotensive activity (mesenteric blood flow, systemic blood pressure), species not stated; type: in vivo
# Procedure: as §1, §2
# The peptide having the formula: H-Pro-Pro-Ile-Ser-Ile-Asp-Leu-Thr-Phe-His-Leu-Leu-Arg-Asn-Met-Ile-Glu-Met- Ala-Arg-Ile-Glu-Asn-Glu-Arg-NH2 is synthesized.
# blood pressure [3] = assay: in vivo hypotensive activity in anaesthetized rats; details: rat; vascular dilatation appears less selective
# Procedure: (§3) UI activity in the fractions was measured by the isolated rat hind limb assay, Lederis, K. et al. "Effects and Assay of Urotensin I on the Perfused Hind Limb of the Rat." Gen Comp Endocrinol. 24:10-16, 1974. In vivo hypotensive activity of extracted peptides or those obtained by enzymatic cleavage was measured in anaesthetized rats, Lederis, K. et al. "Pharmacological Observations on the Hypotensive Action of Extracts of Teleost Fish Urophyses (Urotensin I) in the Rat", Br. J. Pharmac. 51:315-324, 1974.
# as §1
# [4] = comparison of extracted and synthetic sucker peptides (activity relative to extracted peptide); details: synthetic versus extracted peptide
# Procedure: (§4) In the pentobarbital-anaesthetized dog, the threshold dose of UI for mesenteric vasodilatation, when given close arterially into the cephalic mesenteric A, is between 0.001 and 0.01 μg for both sucker UI (1-41) and for the 4-41 fragment of sucker UI. Doses of 0.1-0.5 μg of both peptides produce a 50-150% increase in mesenteric flow; accompanying changes in blood pressure are very modest (about 10% decrease). […] Comp. Endocrinol. 45:446-452, 1981. Comparison of the two extracted and the two synthetic sucker peptides indicate that synthetic UI(1-41) have 111±16% activity and synthetic UI (4-41) have 123±14% activity, relative to the activity of the respective extracted sucker UI peptides.
# isolated rat hind limb = isolated rat hind limb assay
# Procedure: as §3
# as §1, with “1977. […]” for “1977.”
# [5] = tested on: isolated mesenteric artery strips; assay: isolated mesenteric artery strips of the rat
# Procedure: as §4
# mesenteric vascular bed [6] = assay: blood pressure and vascular dilatation in the monkey; type: in vivo; details: for depression of the blood pressure: appears due solely to dilatation of the mesenteric vascular bed
# Procedure: as §1
# mesenteric vascular bed [7] = assay: blood pressure and mesenteric vasodilatation in the anaesthetized dog; type: in vivo; details: for potency of synthetic peptide versus extracted and purified peptide: anaesthetized dog in vivo; for dilatation of other (non-mesenteric) vascular beds / depression of the blood pressure: dog; for depression of the blood pressure: appears due solely to dilatation of the mesenteric vascular bed; for accompanying change in blood pressure (decrease) / increase in mesenteric flow: pentobarbital-anaesthetized dog, doses of 0.1-0.5 μg
# Procedure: as §1, §4
# [8] = tested on: ACTH and β-END-LI secretion; assay: ACTH and β-END-LI secretion in vivo in several rat preparations
# Procedure: as §1
# [9] = tested on: cultured rat pituitary cells; assay: secretion of ACTH and β-endorphin by cultured rat pituitary cells; type: cell-based; details: for potency to stimulate the secretion of ACTH and β-endorphin: in vitro; for potency to stimulate ACTH and β-endorphin secretion compared with amunine (CRF): the two peptides substantially indistinguishable from each other
# Procedure: as §1
# teleost fish pituitaries = assay: secretion of ACTH by teleost fish pituitaries
# Procedure: as §1
# [10] = tested on: ACTH and β-endorphin secretion; details: reported; cited from earlier work
# blood pressure [11] = details: reported, Erspamer et al.; cited from earlier work
Compound,"vasodilatory-hypotensive activity (mesenteric blood flow, systemic blood pressure) (blood pressure [2])",fall in blood pressure (blood pressure [3]),activity relative to the activity of the respective extracted sucker UI peptide [4] [%],potency of synthetic peptide versus extracted and purified peptide (isolated rat hind limb),potency of synthetic peptide versus extracted and purified peptide [5],dilatation of other (non-mesenteric) vascular beds (mesenteric vascular bed [6]),depression of the blood pressure (mesenteric vascular bed [6]),potency of synthetic peptide versus extracted and purified peptide (mesenteric vascular bed [7]),dilatation of other (non-mesenteric) vascular beds (mesenteric vascular bed [7]),depression of the blood pressure (mesenteric vascular bed [7]),accompanying change in blood pressure (decrease) (mesenteric vascular bed [7]),increase in mesenteric flow (mesenteric vascular bed [7]),stimulation of ACTH and β-END-LI secretion in vivo [8],potency to stimulate the secretion of ACTH and β-endorphin [9],potency to stimulate ACTH and β-endorphin secretion compared with amunine (CRF) [9],potency in stimulating the secretion of ACTH relative to amunine (teleost fish pituitaries),also measured
Ac-APPISIDLTFHLLRNMIEMARIENEREQAGLNRKYLDEV-NH2 [V],very significant increasing of mesenteric blood flow and lowering of systemic blood pressure,,,,,,,,,,,,,,,,stimulation of the secretion of ACTH and β-END-LI [1]: stimulates the secretion of ACTH and β-END-LI
"H-PPISIDLTFHLLRNMIEMARIENER-NH2 [VI, H-Pro-Pro-Ile-Ser-Ile-Asp-Leu-Thr-Phe-His-Leu-Leu-Arg-Asn-Met-Ile-Glu-Met- Ala-Arg-Ile-Glu-Asn-Glu-Arg-NH2]",significant mammalian vasodilatory-hypotensive activity,,,,,,,,,,,,,,,,
H-NDDPPISIDLTFHLLRNMIEMARIENEREQAGLNRKYLDEV-NH2 [urotensin I],substantially lower blood presssure for an extended time period,more marked fall in blood pressure,111±16,equipotent with the extracted and purified peptides,equipotent with the extracted and purified peptides,neither peptide dilates other vascular beds,modest but sustained depression of the blood pressure,equipotent with the extracted and purified peptides,neither peptide dilates other vascular beds,modest but sustained depression of the blood pressure,about 10%,50-150%,stimulate ACTH and β-END-LI secretion in vivo,high potency,comparable to amunine (CRF),several times more potent than amunine,stimulation of ACTH and β-END-LI secretion in vivo ([8]; listed as synthetic UI): stimulate ACTH and β-endorphin activies in vitro and in vivo; potency to stimulate the secretion of ACTH and β-endorphin ([9]; listed as synthetic UI): stimulate ACTH and β-endorphin activies in vitro
CC[C@H](C)[C@H](NC(=O)[C@@H](NC(=O)[C@H](CC(=O)O)NC(=O)[C@H](CC(C)C)NC(=O)[C@H](CC(C)C)NC(=O)[C@H](CC(C)C)NC(=O)[C@H](CCCNC(=N)N)NC(=O)[C@H](CC(N)=O)NC(=O)[C@H](CC(N)=O)NC(=O)[C@H](C)NC(=O)[C@H](C)NC(=O)[C@H](CCC(N)=O)NC(=O)[C@H](CCC(N)=O)NC(=O)[C@H](CCCCN)NC(=O)[C@H](CCC(=O)O)NC(=O)[C@H](CCCCN)NC(=O)[C@H](CCC(=O)O)NC(=O)[C@H](CCC(N)=O)NC(=O)[C@H](CCCCN)NC(=O)[C@H](CCC(=O)O)NC(=O)[C@@H](NC(=O)[C@H](CCC(=O)O)NC(=O)[C@@H](NC(=O)[C@H](CCSC)NC(=O)[C@H](CCCCN)NC(=O)[C@H](CCCNC(=N)N)NC(=O)[C@H](CC(C)C)NC(=O)[C@H](CC(C)C)NC(=O)[C@H](CCC(=O)O)NC(=O)[C@H](CC(C)C)NC(=O)[C@H](CO)NC(=O)[C@H](CC(C)C)NC(=O)[C@H](CC(=O)O)NC(=O)[C@@H](NC(=O)[C@H](CO)NC(=O)[C@@H](NC(=O)[C@@H]1CCCN1C(=O)[C@@H]1CCCN1C(=O)CNC(=O)[C@@H]1CCC(=O)N1)[C@@H](C)CC)[C@@H](C)CC)[C@@H](C)CC)[C@@H](C)CC)[C@@H](C)O)C(N)=O [Sauvagine],,,,,,,,,,,,,,,,,stimulating the secretion of ACTH and β-endorphin [10]: stimulating the secretion of ACTH and β-endorphin; lowering blood pressure in mammals (blood pressure [11]): biological activity in lowering blood pressure in mammals
H-PPISIDLTFHLLRNMIEMARIENEREQAGLNRKYLDEV-NH2 [urotensin I (4-41)],substantially lower blood presssure for an extended time period,more marked fall in blood pressure,123±14,equipotent with the extracted and purified peptides,equipotent with the extracted and purified peptides,neither peptide dilates other vascular beds,modest but sustained depression of the blood pressure,equipotent with the extracted and purified peptides,neither peptide dilates other vascular beds,modest but sustained depression of the blood pressure,about 10%,50-150%,stimulate ACTH and β-END-LI secretion in vivo,high potency,comparable to amunine (CRF),several times more potent than amunine,stimulation of ACTH and β-END-LI secretion in vivo ([8]; listed as UI 4-41): stimulate ACTH and β-endorphin activies in vitro and in vivo; potency to stimulate the secretion of ACTH and β-endorphin ([9]; listed as UI 4-41): stimulate ACTH and β-endorphin activies in vitro
